{"source": "patent US9738697B2", "about": "(Wisconsin Alumni Research Foundation, priority 2013, dated 2017)", "key": {"mouse pancreatic islets": {"system": "mouse pancreatic islets", "assay": "Islet cell insulin secretion assay (glucose-stimulated insulin secretion, insulin content)", "type": "cell-based", "description": "A critical physiological role of GLP-1 is to augment glucose-stimulated insulin secretion (GSIS) from pancreatic islet β cells. α/β-Peptide SEQ. ID. […] The results are depicted in FIG. 2.\nID. NO: 7. Approximately 100 medium sized islets were washed three times, placed in a sterile Petri dish, and incubated overnight in culture medium (RPMI 1640, with 11.1 mM glucose, antibiotics and 10% heat-inactivated fetal bovine serum). The following day, 50 islets were washed and transferred in […] of Krebs Ringer Buffer (KRB) to a Swinnex®-brand filter holder (EMD Millipore, Billerica, Mass.). The islets were sandwiched between two layers of Bio-Gel P-2 bead (Bio-Rad, Hercules, Calif.) solution (200 mg beads/mL in KRB; bottom layer, […] and top layer, […]). The Swinnex filter holder was attached in-line with a Minipuls®-brand pump (Gilson, Middleton, Wis.) and a FC 204 Fraction Collector (Gilson). Islets were perifused at the rate of 1 mL/min, and samples were collected at 30 sec intervals. Insulin content of the islets themselves and insulin secretion were determined by ELISA. […] ID. NO: 7."}, "human GLP-1 receptor": {"target": "human GLP-1 receptor (Homo sapiens, UniProt P43220)", "sequence (P43220 24-463)": "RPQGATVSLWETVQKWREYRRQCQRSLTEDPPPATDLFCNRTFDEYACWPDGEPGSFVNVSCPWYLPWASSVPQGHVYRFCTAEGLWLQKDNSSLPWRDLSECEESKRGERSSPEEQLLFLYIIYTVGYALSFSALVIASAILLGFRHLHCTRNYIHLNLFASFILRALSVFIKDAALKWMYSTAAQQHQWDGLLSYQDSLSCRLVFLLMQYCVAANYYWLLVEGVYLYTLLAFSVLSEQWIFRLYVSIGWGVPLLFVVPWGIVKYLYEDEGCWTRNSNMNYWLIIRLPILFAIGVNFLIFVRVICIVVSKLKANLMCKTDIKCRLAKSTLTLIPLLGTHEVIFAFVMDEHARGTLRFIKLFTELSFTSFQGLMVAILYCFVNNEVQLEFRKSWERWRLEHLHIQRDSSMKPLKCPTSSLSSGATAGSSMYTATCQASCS", "assay": "GLP-1R activation monitored by cAMP production in HEK293 cells"}, "neprilysin": {"target": "T1, neprilysin (Homo sapiens, UniProt P08473)", "T1 construct": "purchased Reprokine; Ltd. RKP08473", "T1 sequence (P08473 whole entry)": "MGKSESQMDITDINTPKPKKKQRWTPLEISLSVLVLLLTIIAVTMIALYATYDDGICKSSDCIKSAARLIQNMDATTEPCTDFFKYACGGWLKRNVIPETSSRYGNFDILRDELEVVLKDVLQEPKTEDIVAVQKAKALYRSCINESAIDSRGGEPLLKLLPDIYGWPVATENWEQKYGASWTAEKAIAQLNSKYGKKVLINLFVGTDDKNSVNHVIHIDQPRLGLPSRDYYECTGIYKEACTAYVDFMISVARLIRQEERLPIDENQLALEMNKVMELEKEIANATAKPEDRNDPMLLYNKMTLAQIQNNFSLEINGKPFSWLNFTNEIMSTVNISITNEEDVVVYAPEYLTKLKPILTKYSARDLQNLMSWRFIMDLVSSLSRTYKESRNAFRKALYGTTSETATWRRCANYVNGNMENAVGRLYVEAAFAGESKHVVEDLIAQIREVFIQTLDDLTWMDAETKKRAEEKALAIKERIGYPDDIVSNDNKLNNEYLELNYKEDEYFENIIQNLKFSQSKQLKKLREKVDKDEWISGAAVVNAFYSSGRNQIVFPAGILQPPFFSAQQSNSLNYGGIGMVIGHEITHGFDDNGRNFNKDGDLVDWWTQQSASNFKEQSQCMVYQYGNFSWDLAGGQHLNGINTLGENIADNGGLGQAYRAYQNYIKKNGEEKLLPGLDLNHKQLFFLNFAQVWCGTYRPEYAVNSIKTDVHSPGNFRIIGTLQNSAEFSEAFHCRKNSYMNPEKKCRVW", "assay": "Protease assay with neprilysin (HPLC)", "type": "in vitro ADME", "details": "40 μg/mL neprilysin", "protocol": "An HPLC method from the literature was used to assess protease action on selected compounds.^29,31 Two nmol of solid peptide was dissolved in 40 μL of TBS pH 8.0 (resulting concentration of peptide=40 μM) before protease was added. Chymotrypsin was purchased from Promega (Fitchburg, Wis.; catalog #V1062), and neprilysin was purchased from Reprokine. Ltd. (Valley Cottage, N.Y.; catalog #RKP08473); stock solutions of 250 μg/mL chymotrypsin and 200 μg/mL neprilysin in water were prepared. A 10 μL aliquot of protease stock solution was added to 40 μL of 40 μM peptide solution to begin the reaction. Periodically, a 10 μL aliquot of the solution was removed, and protease action was halted by adding this aliquot to 100 μL of 1% aqueous TFA solution. […] The time course of peptide degradation was experimentally determined by integrating the area of each peak in a series of HPLC traces. The area percent of parent peptide (relative to the initial trace) was calculated for each trace and plotted in GraphPad Prism as an exponential decay to determine half-life values.\nMajor backbone cut sites, as determined by MALDI-TOF-MS, are indicated with double front slashes."}, "chymotrypsin": {"target": "T2, chymotrypsin (Bos taurus, UniProt P00766)", "T2 construct": "purchased Promega V1062", "assay": "Protease assay with chymotrypsin (HPLC)", "type": "in vitro ADME", "details": "chymotrypsin in TBS; 40 μM peptide, 50 μg/mL chymotrypsin, TBS pH 8.0, room temperature; read-out: t1/2 with chymotrypsin (converted)", "description": "An HPLC method from the literature was used to assess protease action on selected compounds.^29,31 Two nmol of solid peptide was dissolved in 40 μL of TBS pH 8.0 (resulting concentration of peptide=40 μM) before protease was added. Chymotrypsin was purchased from Promega (Fitchburg, Wis.; catalog #V1062), and neprilysin was purchased from Reprokine. Ltd. (Valley Cottage, N.Y.; catalog #RKP08473); stock solutions of 250 μg/mL chymotrypsin and 200 μg/mL neprilysin in water were prepared. A 10 μL aliquot of protease stock solution was added to 40 μL of 40 μM peptide solution to begin the reaction. Periodically, a 10 μL aliquot of the solution was removed, and protease action was halted by adding this aliquot to 100 μL of 1% aqueous TFA solution. A portion (100 μL) of the quenched solution was injected onto an HPLC column using the conditions described under “Peptide Synthesis”, and peaks were analyzed using MALDI-TOF MS. The time course of peptide degradation was experimentally determined by integrating the area of each peak in a series of HPLC traces. The area percent of parent peptide (relative to the initial trace) was calculated for each trace and plotted in GraphPad Prism as an exponential decay to determine half-life values.\nID. […] Major backbone cut sites are indicated with double front slashes. […] Digestion occurs at three major cleavage sites. […] ID. NO: 7 with 50 μg/mL chymotrypsin in TBS pH 8.0 at room temperature. […] ID. NO: 9 with 50 μg/mL chymotrypsin in TBS pH 8.0 at room temperature. This peptide has seven substitutions, α→Aib."}, "C57BL/6J mice": {"system": "C57BL/6J mice", "assay": "Glucose tolerance test (GTT) in mice", "type": "in vivo, mouse", "description": "ID. NO: 7 was administered to mice by interperitoneal (i.p.) injection at a 1 mg/kg dose, or lower for SEQ. ID. NO: 7, using an injection volume of 10 mL/kg body mass. Each peptide was first dissolved in prefiltered DMSO at 10 mg/mL concentration, then diluted >20-fold with TBS buffer, pH 7.4 (final DMSO conc.=<5%). Glucose was administered by i.p. injection with a sterile-filtered 30% D-glucose-saline solution at a 1.5 g/kg dose using a 5 mL/kg injection volume.\nThirteen-week-old male C57BL/6J mice (The Jackson Laboratory) (n=4) were fasted overnight on wood chip bedding for 15 hours prior to the experiment. Blood glucose levels were monitored from a tail tip bleed using an ACCU-CHEK®-brand blood glucose meter (Roche Diagnostics, Indianapolis, Ind.). Fasting glucose levels were measured at 75 minutes prior to the glucose injection (t=−75 min), and the compound injection was performed 60 minutes prior to the glucose injection (t=−60 min). Glucose levels were measured immediately prior to the glucose injection (t=0 min) to assess any changes in the baseline glucose caused by peptide administration. Blood glucose levels were monitored at 30, 60, 90, and 120 minutes after injection of glucose.\nFive hours after peptide injection, the mice received a second injection of 1.5 g/kg glucose. Blood glucose was monitored at 30 min after this second glucose injection. Mice were sacrificed by CO2 inhalation at the conclusion of the GTT."}}, "note": "pEC50: −log10 of the molar value.", "data": [{"molecule": "CC[C@H](C)[C@H](NC(=O)[C@H](Cc1ccccc1)NC(=O)[C@H](CCC(=O)O)NC(=O)[C@H](CCCCN)NC(=O)[C@H](C)NC(=O)[C@H](C)NC(=O)[C@H](CCC(N)=O)NC(=O)CNC(=O)[C@H](CCC(=O)O)NC(=O)[C@H](CC(C)C)NC(=O)[C@H](Cc1ccc(O)cc1)NC(=O)[C@H](CO)NC(=O)[C@H](CO)NC(=O)[C@@H](NC(=O)[C@H](CC(=O)O)NC(=O)[C@H](CO)NC(=O)[C@@H](NC(=O)[C@H](Cc1ccccc1)NC(=O)[C@@H](NC(=O)CNC(=O)[C@H](CCC(=O)O)NC(=O)[C@H](C)NC(=O)[C@@H](N)Cc1c[nH]cn1)[C@@H](C)O)[C@@H](C)O)C(C)C)C(=O)N[C@@H](C)C(=O)N[C@@H](Cc1c[nH]c2ccccc12)C(=O)N[C@@H](CC(C)C)C(=O)N[C@H](C(=O)N[C@@H](CCCCN)C(=O)NCC(=O)N[C@@H](CCCNC(=N)N)C(N)=O)C(C)C", "note": "[GLP-1(7-36)-NH2]", "values": [{"measurement": "increase in glucose-stimulated insulin secretion (GSIS)", "setting": "mouse pancreatic islets; freshly isolated mouse islets, 90 nM agonist", "value": "~2", "unit": "fold"}]}, {"molecule": "CC[C@H](C)[C@H](NC(=O)[C@H](Cc1ccccc1)NC(=O)[C@H](CCC(=O)O)NC(=O)C1CCCC1NC(=O)[C@H](C)NC(=O)[C@H](C)NC(=O)[C@H](CCC(N)=O)NC(=O)C1CCCC1NC(=O)[C@H](CCC(=O)O)NC(=O)[C@H](CC(C)C)NC(=O)[C@H](Cc1ccc(O)cc1)NC(=O)C1CCCC1NC(=O)[C@H](CO)NC(=O)[C@@H](NC(=O)[C@H](CC(=O)O)NC(=O)C1CCCC1NC(=O)[C@@H](NC(=O)[C@H](Cc1ccccc1)NC(=O)[C@@H](NC(=O)CNC(=O)[C@H](CCC(=O)O)NC(=O)[C@H](C)NC(=O)[C@@H](N)Cc1c[nH]cn1)[C@@H](C)O)[C@@H](C)O)C(C)C)C(=O)NC1CCCC1C(=O)N[C@@H](Cc1c[nH]c2ccccc12)C(=O)N[C@@H](CC(C)C)C(=O)N[C@H](C(=O)NC1CNCC1C(=O)NCC(=O)N[C@@H](CCCNC(=N)N)C(=O)NCC(N)=O)C(C)C", "note": "(some centres unmarked) [SEQ. ID. NO: 6, H-HAEGTFTXDVSXYLEXQAAXEFIXWLVZGRG-NH2]", "values": [{"measurement": "pEC50", "setting": "human GLP-1 receptor", "value": "< 7.00"}, {"measurement": "cAMP production at 100 nM (in words)", "setting": "human GLP-1 receptor; 100 nM peptide", "value": "only a small amount of cAMP production"}, {"measurement": "cAMP production, AVERAGES at M Concentrations −7", "setting": "human GLP-1 receptor; peptide concentration −7 (log M)", "value": 100}, {"measurement": "cAMP production, AVERAGES at M Concentrations −8", "setting": "human GLP-1 receptor; peptide concentration −8 (log M)", "value": 99.2328}, {"measurement": "cAMP production, AVERAGES at M Concentrations −9", "setting": "human GLP-1 receptor; peptide concentration −9 (log M)", "value": 42.7672}, {"measurement": "cAMP production, AVERAGES at M Concentrations −10", "setting": "human GLP-1 receptor; peptide concentration −10 (log M)", "value": 18.05}, {"measurement": "cAMP production, AVERAGES at M Concentrations −12", "setting": "human GLP-1 receptor; peptide concentration −12 (log M)", "value": 5.688}, {"measurement": "cAMP production, AVERAGES at M Concentrations −13", "setting": "human GLP-1 receptor; peptide concentration −13 (log M)", "value": 5.688}]}, {"molecule": "CC[C@H](C)[C@H](NC(=O)[C@H](Cc1ccccc1)NC(=O)[C@H](CCC(=O)O)NC(=O)C(C)(C)NC(=O)[C@H](C)NC(=O)[C@H](C)NC(=O)[C@H](CCC(N)=O)NC(=O)C(C)(C)NC(=O)[C@H](CCC(=O)O)NC(=O)[C@H](CC(C)C)NC(=O)[C@H](Cc1ccc(O)cc1)NC(=O)C(C)(C)NC(=O)[C@H](CO)NC(=O)C(C)(C)NC(=O)[C@H](CC(=O)O)NC(=O)[C@H](CO)NC(=O)[C@@H](NC(=O)[C@H](Cc1ccccc1)NC(=O)[C@@H](NC(=O)CNC(=O)[C@H](CCC(=O)O)NC(=O)C(C)(C)NC(=O)[C@@H](N)Cc1c[nH]cn1)[C@@H](C)O)[C@@H](C)O)C(=O)NC(C)(C)C(=O)N[C@@H](Cc1c[nH]c2ccccc12)C(=O)N[C@@H](CC(C)C)C(=O)N[C@H](C(=O)NC(C)(C)C(=O)NCC(=O)N[C@@H](CCCNC(=N)N)C(=O)NCC(N)=O)C(C)C", "note": "[SEQ. ID. NO: 9]", "values": [{"measurement": "number of major cleavage sites, neprilysin", "setting": "neprilysin; MALDI-TOF-MS", "value": "six"}, {"measurement": "half-life", "setting": "neprilysin; neprilysin in TBS, pH 8, 40 μM peptide, TBS pH 8.0, room temperature, read-out: half-life (t1/2) with neprilysin (converted)", "value": 498, "unit": "min"}, {"measurement": "half-life", "setting": "chymotrypsin", "value": 2.25, "unit": "min"}]}, {"molecule": "CC[C@H](C)[C@H](NC(=O)[C@H](Cc1ccccc1)NC(=O)[C@H](CCC(=O)O)NC(=O)[C@H](CCCCN)NC(=O)[C@H](C)NC(=O)[C@H](C)NC(=O)[C@H](CCC(N)=O)NC(=O)CNC(=O)[C@H](CCC(=O)O)NC(=O)[C@H](CC(C)C)NC(=O)[C@H](Cc1ccc(O)cc1)NC(=O)[C@H](CO)NC(=O)[C@H](CO)NC(=O)C(C)(C)NC(=O)[C@H](CC(=O)O)NC(=O)[C@H](CO)NC(=O)[C@@H](NC(=O)[C@H](Cc1ccccc1)NC(=O)[C@@H](NC(=O)CNC(=O)[C@H](CCC(=O)O)NC(=O)[C@H](C)NC(=O)[C@@H](N)Cc1c[nH]cn1)[C@@H](C)O)[C@@H](C)O)C(=O)N[C@@H](C)C(=O)N[C@@H](Cc1c[nH]c2ccccc12)C(=O)N[C@@H](CC(C)C)C(=O)N[C@H](C(=O)N[C@@H](CCCCN)C(=O)NCC(=O)N[C@@H](CCCNC(=N)N)C(=O)NCC(N)=O)C(C)C", "note": "[SEQ. ID. NO: 14]", "values": [{"measurement": "agonist character at GLP-1R (in words)", "setting": "human GLP-1 receptor; cAMP production", "value": "native-like efficacy and potency"}]}, {"molecule": "Exendin-4: GLP-1R agonist found in the saliva of the Gila monster (39 residues), active agent in exenatide; purchased from Anaspec", "values": [{"measurement": "rise of glucose relative to vehicle-treated mice during the GTT (in words)", "setting": "C57BL/6J mice; 1 mg/kg", "value": "dramatic suppression"}, {"measurement": "Average Blood Glucose Level", "setting": "C57BL/6J mice; 1 mg/kg i.p., time 0.0 min", "value": 89.5, "unit": "mg/dL"}, {"measurement": "Average Blood Glucose Level", "setting": "C57BL/6J mice; 1 mg/kg i.p., time 30.0 min", "value": 123.5, "unit": "mg/dL"}, {"measurement": "Average Blood Glucose Level", "setting": "C57BL/6J mice; 1 mg/kg i.p., time 60.0 min", "value": 87.0, "unit": "mg/dL"}, {"measurement": "Average Blood Glucose Level", "setting": "C57BL/6J mice; 1 mg/kg i.p., time 90.0 min", "value": 67.5, "unit": "mg/dL"}, {"measurement": "Average Blood Glucose Level", "setting": "C57BL/6J mice; 1 mg/kg i.p., time 120.0 min", "value": 70.0, "unit": "mg/dL"}, {"measurement": "Average Blood Glucose Level", "setting": "C57BL/6J mice; 1 mg/kg i.p., time −60.0 min (peptide injection)", "value": 118.0, "unit": "mg/dL"}, {"measurement": "Average Blood Glucose Level at 30 min (column head AUC)", "setting": "C57BL/6J mice; 1 mg/kg i.p., Table 7, 30 min after second glucose injection given five hours after peptide", "value": 118.8}, {"measurement": "glucose-lowering effect in GTT repeated 5 hours after agonist administration (in words)", "setting": "C57BL/6J mice; 1 mg/kg, 30 min after the second glucose challenge", "value": "maintained"}]}, {"molecule": "GLP-1: glucagon-like peptide-1; used loosely for GLP-1(7-36)-NH2 (Tables 3, 5) or GLP-1(7-37)-NH2", "values": [{"measurement": "Insulin Content average (ng/3 islets)", "setting": "mouse pancreatic islets; high glucose + 3 nM peptide", "value": 522.1, "unit": "ng/3 islets"}, {"measurement": "Insulin Content average (ng/3 islets)", "setting": "mouse pancreatic islets; high glucose + 10 nM peptide", "value": 496.4, "unit": "ng/3 islets"}, {"measurement": "Insulin Content average (ng/3 islets)", "setting": "mouse pancreatic islets; high glucose + 30 nM peptide", "value": 458.6, "unit": "ng/3 islets"}, {"measurement": "Insulin Content average (ng/3 islets)", "setting": "mouse pancreatic islets; high glucose + 90 nM peptide", "value": 463.1, "unit": "ng/3 islets"}]}]}
